Results from US8343912B2, “Antibiotic compositions for the treatment of gram negative infections” (priority 2008, dated 2013).
Converted amounts (≈) assume the structure as drawn. Numbered stars: 1 amine (or outer) side, 2 acyl side, 3 side chain; on linkers, the order of the positions; unused ones are H or OH. Bridge positions count the residues as written; N and C are the ends. Square brackets hold non-standard residues; d marks the D form. Peptide text beside a SMILES is read from it. * marks the point of attachment. Octanoyl(6-Me) = CCC(C)CCCCC(=O)*; NH(2-ClPh) = Clc1ccccc1N*; Dab = NCC[CH](N)C(=O)O; CO = O=C([*:1])[*:2]

Assays:
S. maltophilia = test: MIC90, broth microdilution, panel of Gram negative clinical isolates; format: cell-based, Stenotrophomonas maltophilia; conditions: 25 strains
Description: (§1) To evaluate the potency and spectrum of compounds of Formula (I), (i.e., Compounds designated 5 and 6), a study was conducted that put together a panel of 455 Gram negative strains, which included multi-drug resistant clinical isolates selected from various surveillance programs. Table 3A lists the strains that were included in the study and the activity of Compound 5, Compound 6, and colistin (polymyxin E, abbreviated PME). Strains with acquired resistance to colistin and/or carbapenems and/or broad spectrum cephalosporins were pre-selected and included in all organism groups evaluated.
(§2) MIC testing was performed according to Clinical and Laboratory Standards Institute (CLSI) M7-A7 (2006) broth microdilution methods. Unless otherwise indicated, MIC values are provided in units of micrograms per milliliter.
(§3) One day prior to testing, individual colonies were isolated by streaking onto rich, non-selective Tryptic Soy agar with 5% lysed sheeps blood (TSAB) with incubation at 35-37° C. for 18-24 hours.
(§4) Cultures were prepared by touching 3-5 colonies into 3 mL of Cation adjusted Mueller Hinton Broth (caMHB) in a 14 mL tube (CaMHB was prepared and sterilized according to manufacturer's specifications). Cultures were grown at 37° C. 200 rpm for approximately four hours prior to density adjustment for addition to the MIC assay.
(§5) OD600 of growing cultures was measured and adjusted to approximately 10^5 colony forming units per mL (CFU/mL) in caMHB for MIC inoculation (approximately OD600 0.001).
(§6) Diluted cultures were used to inoculate 50 μL per well in broth microdilution assays (final volume 100 μl per well; compounds were prepared in two-fold dilutions).
(§7) Plates were incubated 16-20 hrs at 37° C., with shaking at 200 rpm.
(§8) OD600 was determined for all wells. Growth was defined as OD600>0.1. MICs were defined as the lowest concentration producing no visible turbidity (OD600<0.1).

P. aeruginosa [1] = test: MIC, broth microdilution (Table 4); format: cell-based, Pseudomonas aeruginosa; conditions: for MIC P. aeruginosa: Table 4
Description: as §2, §3, §4, §5, §6, §7, §8

[2] = tested on: Acinetobacter baumannii 1570; test: MIC, broth microdilution; format: cell-based; conditions: for MIC against A. baumannii #1570: Table 8, range of repeated tests
Description: as §2, §3, §4, §5, §6, §7, §8
A. baumannii #1570 were grown in cation adjusted Mueller Hinton Broth (caMHB) (catalog #B12322; Fisher Scientific, Pittsburgh, Pa.) at 37° C. MIC testing was performed according to Clinical and Laboratory Standards Institute [CLSI, formerly National Committee for Clinical Laboratory Standards (NCCLS), Wayne, Pa.] guidelines for broth microdilution.
(§9) MIC testing was performed according to CLSI (formerly NCCLS) guidelines for broth microdilution.

P. aeruginosa #44 = test: MIC, broth microdilution; format: cell-based, Pseudomonas aeruginosa; conditions: for MIC against P. aeruginosa #44: Table 5, range of repeated tests
Description: as §2, §3, §4, §5, §6, §7, §8
P. aeruginosa #44 or K. pneumoniae #21 were grown in cation adjusted Mueller Hinton Broth (caMHB) (catalog #B12322; Fisher Scientific, Pittsburgh, Pa.) at 37° C. MIC testing was performed according to Clinical and Laboratory Standards Institute [CLSI, formerly National Committee for Clinical Laboratory Standards (NCCLS), Wayne, Pa.] guidelines for broth microdilution.
as §9

[3] = Cell culture cytotoxicity assay (ATP bioluminescence, LLC-PK1); format: cell-based, rat; conditions: rat; read-out: EC50, rat kidney proximal tubule cell culture cytotoxicity assay
Description: Day 1: 1×10^5 to 2×10^5 cellswere inoculated (Cell line: LLC-PK1) per flask, containing 4 mL/T25 flask of medium DMEM-F12 (50/50) media supplemented with 10% FBS (Fetal Bovine Serum). The cells were then incubated at 37° C., 5% CO2, 80% RH.
Day 4: The cell cultures were examined to determine 80% confluency. To trypsinize of the 80% confluent flasks, 4 mL of DMEM-F12-10% FBS media was prepared per flask. The media was aspirated from the flask and 5 mL of Versene was added to rinse the flask. The Versene was aspirated and 2 mL of triple Express solution (trypsin solution) was added. The cells were incubated for 5 min at room temperature and examined via microscopy for the rounding of the cells and their detachment. To speed up the reaction, the flask can be incubated at 37° C. for 3 minutes. 4 mL of media (DMEM-F12-10%FBS) was added to stop the reaction. Using a 5 mL pipette, the completed reaction was pipetted up and down to ensure that the cells were properly detached from the flask and from each others. The cell number was counted using a hemocytometer slide. 100 μL of cell suspension was transferred to a tube and 100 μL of Trypan Blue was added. Inoculum for 96 well is 10,000 cells per well. For one 96 well plate, 26.3 μL×110 well=2893 μL total. 2.9 mL of cell suspension was mixed with 8.1 mL of media DMEM-F12-10% FBS and 100 μL was distributed to each well using a multichannel pipetter. The plate was then Incubated for 24 h at 37° C.
Day 5: DMEM-F12 (no FBS) medium was dispensed into tubes with the test article to achieve final concentrations of […]. The 96 well plate was taken off the incubator and media was removed from each well using multichannel pipetter. 80 μL of serially diluted compounds of Formula (I) was added to each well. Every set of concentration was done in triplicate. Media and positive controls were added to each plate and the plates were incubated for 24 hours at 37° C.
Day 6: The plates were taken from the incubator, the media was removed from each well, and 100 μL of fresh media DMEM-F12 (this is equivalent to a rinse and the media can be replaced with PBS) was added. The media is then removed and 80 μL of cell lysis solution is added. After 5 minutes, 80 μL of sterile filtered high quality water was added to each well. Using a white or black 96 well reaction plate, 80 μL of 25× diluted ATP mix reagent (Sigma Bioluminescent Somatic Cell Assay Kit [cat #FL-ASC]) was added into one column. 80 μL of diluted ATP standards (dilutions used: 250, 500, 1000, 2000 and 4000) was added and the plate was read immediately in the topcount with a 2 second read time. In another white or black 96 well reaction plate, 80 μL of 25× diluted ATP mix reagent (plate A) was added and 80 μL of lysis-water solution was transferred to each column of plate A. The plate was then read immediately in the topcount with a 2 second read time. This process was repeated for next consecutive plate and the EC50 for certain compounds of Formula I were calculated and provided in Table 4.

K. pneumonia = test: MIC90, broth microdilution, panel of Gram negative clinical isolates; format: cell-based, Klebsiella pneumoniae; conditions: 81 strains; some strains multi-drug resistant
Description: as §1, §2, §3, §4, §5, §6, §7, §8

P. aeruginosa [4] = test: as above; format: cell-based, Pseudomonas aeruginosa; conditions: 100 strains
Description: as §1, §2, §3, §4, §5, §6, §7, §8

Citrobacter spp. = test: as above; format: cell-based; conditions: 20 strains; some strains multi-drug resistant
Description: as §1, §2, §3, §4, §5, §6, §7, §8

Acinetobacter spp = test: as above; format: cell-based; conditions: 81 strains
Description: as §1, §2, §3, §4, §5, §6, §7, §8

Enterobacter = test: as above; format: cell-based; conditions: 20 strains; some strains multi-drug resistant
Description: as §1, §2, §3, §4, §5, §6, §7, §8

| Structure (SMILES) | MIC90 S. maltophilia (S. maltophilia) [micrograms/mL] | activity against bacteria compared with polymyxin B (P. aeruginosa [1]) | MIC P. aeruginosa (P. aeruginosa [1]) [micrograms/ml] | MIC Acinetobacter baumannii 1570 ([2]; Table 3B) [micrograms/mL] | MIC against A. baumannii #1570 [2] | MIC P. aeruginosa 44 (P. aeruginosa #44; Table 3B) [micrograms/mL] | MIC against P. aeruginosa #44 (P. aeruginosa #44) | EC50 at 24 h [3] [µg/mL] | MIC90 K. pneumonia (K. pneumonia) [micrograms/mL] | MIC90 P. aeruginosa (P. aeruginosa [4]) [micrograms/mL] | MIC90 Citrobacter spp. (Citrobacter spp.) [micrograms/mL] | MIC90 Acinetobacter spp (Acinetobacter spp) [micrograms/mL] | MIC90 Enterobacter (Enterobacter) [micrograms/mL] |
| --- | --- | --- | --- | --- | --- | --- | --- | --- | --- | --- | --- | --- | --- |
| CC(C)C[C@@H]1NC(=O)[C@@H](Cc2ccccc2)NC(=O)[C@H](CCN)NC(=O)[C@@H](NC(=O)[C@H](CCN)NC(=O)[C@@H](NC(=O)[C@H](CCN)NC(=O)Nc2ccccc2Cl)[C@@H](C)O)CCNC(=O)[C@H]([C@@H](C)O)NC(=O)[C@H](CCN)NC(=O)[C@H](CCN)NC1=O [Compound 5, (S)-4-amino-N-((2S,3R)-1-((S)-4-amino-1-oxo-1-((3S,6S,9S,12S,15R,18S,21S)-6,9,18-tris(2-aminoethyl)-15-benzyl-3-((R)-1-hydroxyethyl)-12-isobutyl-2,5,8,11,14,17,20-heptaoxo-1,4,7,10,13,16,19-heptaazacyclotricosan-21-ylamino)butan-2-ylamino)-3-hydroxy-1-oxobutan-2-yl)-2-(3-(2-chlorophenyl)ureido)butanamide] ({NH(2-ClPh)-CO}-[Dab]T[Dab][Dab][Dab][dF]L[Dab][Dab]T; lactam 4-C) | >16 | as active or more active | 2 | 4 | 2-4 micrograms/ml | 1 | 1-2 micrograms/ml | > 1000 | 4 | 2 | 0.5 | 4 | >16 |
| CCC(C)CCCCC(=O)NC(CCN)C(=O)NC(C(=O)NC(CCN)C(=O)NC1CCNC(=O)C(C(C)O)NC(=O)C(CCN)NC(=O)C(CCN)NC(=O)C(CC(C)C)NC(=O)C(Cc2ccccc2)NC(=O)C(CCN)NC1=O)C(C)O (centres unmarked) [Polymyxin B, polymyxin B, reference compound] ({Octanoyl(6-Me)}-[Dab]T[Dab][Dab][Dab]FL[Dab][Dab]T; lactam 4-C; configuration not given here) | 8 | – | 2 | – | 1-2 micrograms/ml | – | 1-2 micrograms/ml | 318 (≈ 264 µM) | 2 | 2 | 1 | 2 | >64 |
